For assay [1], the target named is T1, Frizzled-2 (Homo sapiens, UniProt Q14332). Briefly: Agonist activity at frizzled-2 (unknown origin) expressed in human HEK293superTOP flash cells by luciferase reporter gene assay. Particulars: hek293. The class given is functional, cell-based. Background: A reporter such as luciferase makes a cellular process visible.
Target sequence in this assay (Q14332 whole entry): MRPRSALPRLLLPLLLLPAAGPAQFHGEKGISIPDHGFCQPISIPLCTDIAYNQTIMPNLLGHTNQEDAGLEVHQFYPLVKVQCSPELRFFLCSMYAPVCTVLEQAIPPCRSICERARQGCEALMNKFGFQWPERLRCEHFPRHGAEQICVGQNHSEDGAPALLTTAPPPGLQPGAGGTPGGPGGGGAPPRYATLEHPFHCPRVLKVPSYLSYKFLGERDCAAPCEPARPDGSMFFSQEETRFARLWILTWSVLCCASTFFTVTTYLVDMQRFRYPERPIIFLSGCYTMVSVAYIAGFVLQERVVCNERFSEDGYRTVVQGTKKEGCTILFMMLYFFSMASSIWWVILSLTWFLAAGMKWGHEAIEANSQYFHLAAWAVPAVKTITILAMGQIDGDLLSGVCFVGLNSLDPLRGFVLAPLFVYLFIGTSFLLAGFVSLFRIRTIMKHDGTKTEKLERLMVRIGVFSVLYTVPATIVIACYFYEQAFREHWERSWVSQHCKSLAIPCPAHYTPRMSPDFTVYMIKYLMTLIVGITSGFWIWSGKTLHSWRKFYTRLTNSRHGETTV
The target of assay [2] is Frizzled-1 (Homo sapiens) (UniProt Q9UP38). Briefly: Agonist activity at frizzled-1 (unknown origin) expressed in human HEK293superTOP flash cells by luciferase reporter gene assay. As to conditions: HEK293. The class given is functional, cell-based.
Sequence of Frizzled-1 (Homo sapiens) (Q9UP38 70-647 limits assumed): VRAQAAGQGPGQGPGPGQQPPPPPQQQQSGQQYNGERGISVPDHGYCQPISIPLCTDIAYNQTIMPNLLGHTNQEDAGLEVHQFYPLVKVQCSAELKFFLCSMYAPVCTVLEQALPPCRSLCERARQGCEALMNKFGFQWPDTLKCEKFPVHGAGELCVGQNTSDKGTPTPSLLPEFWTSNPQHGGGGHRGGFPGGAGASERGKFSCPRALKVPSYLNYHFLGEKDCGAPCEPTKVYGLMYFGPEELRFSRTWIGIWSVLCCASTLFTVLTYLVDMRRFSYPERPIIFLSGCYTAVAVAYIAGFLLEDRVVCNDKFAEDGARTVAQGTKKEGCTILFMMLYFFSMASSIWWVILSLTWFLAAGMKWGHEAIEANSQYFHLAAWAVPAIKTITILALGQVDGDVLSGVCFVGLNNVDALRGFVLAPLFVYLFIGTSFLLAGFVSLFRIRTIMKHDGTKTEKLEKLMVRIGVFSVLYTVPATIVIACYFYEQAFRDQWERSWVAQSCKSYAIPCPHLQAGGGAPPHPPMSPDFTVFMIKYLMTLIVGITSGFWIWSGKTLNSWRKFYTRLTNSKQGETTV
Assay [3] shares this target. Briefly: Antagonist activity at Wnt3a-stimulated frizzled-1 (unknown origin) expressed in human HEK293superTOP flash cells incubated for 24 hrs by luciferase reporter gene assay. As to conditions: HEK293. The class given is functional, cell-based.
In assay [4] the target is T1, Frizzled-2. Briefly: Antagonist activity at Wnt3a-stimulated frizzled-2 (unknown origin) expressed in human HEK293superTOP flash cells incubated for 24 hrs by luciferase reporter gene assay. The class given is functional, cell-based. Particulars: HEK293.
Target sequence in this assay (Q14332 24-565 limits assumed): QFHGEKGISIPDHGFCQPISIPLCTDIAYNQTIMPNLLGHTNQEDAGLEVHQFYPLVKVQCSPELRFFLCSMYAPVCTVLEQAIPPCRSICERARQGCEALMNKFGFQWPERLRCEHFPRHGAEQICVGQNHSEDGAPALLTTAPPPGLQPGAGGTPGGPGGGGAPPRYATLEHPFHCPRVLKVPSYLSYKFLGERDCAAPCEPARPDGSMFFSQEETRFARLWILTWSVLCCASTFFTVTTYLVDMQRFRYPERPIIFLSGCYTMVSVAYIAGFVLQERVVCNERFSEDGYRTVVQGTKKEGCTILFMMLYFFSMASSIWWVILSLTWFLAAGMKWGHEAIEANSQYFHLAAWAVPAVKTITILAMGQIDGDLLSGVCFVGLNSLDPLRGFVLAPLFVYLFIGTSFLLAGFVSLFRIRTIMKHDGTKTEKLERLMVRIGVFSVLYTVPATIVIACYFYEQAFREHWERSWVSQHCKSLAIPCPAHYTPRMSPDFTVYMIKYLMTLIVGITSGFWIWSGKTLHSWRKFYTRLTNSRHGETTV
For assay [5], the target named is Frizzled-2 (Rattus norvegicus) (UniProt Q08464). Kind of assay: Antagonist activity at Wnt3a-stimulated rat frizzled-2 expressed in African green monkey COS7 cells up to 10 uM incubated for 24 hrs by luciferase reporter gene assay. The class given is cell-based. As to conditions: dose microM <=10, time 24.0 hrs.
Sequence of Frizzled-2 (Rattus norvegicus) (Q08464 29-570 limits assumed): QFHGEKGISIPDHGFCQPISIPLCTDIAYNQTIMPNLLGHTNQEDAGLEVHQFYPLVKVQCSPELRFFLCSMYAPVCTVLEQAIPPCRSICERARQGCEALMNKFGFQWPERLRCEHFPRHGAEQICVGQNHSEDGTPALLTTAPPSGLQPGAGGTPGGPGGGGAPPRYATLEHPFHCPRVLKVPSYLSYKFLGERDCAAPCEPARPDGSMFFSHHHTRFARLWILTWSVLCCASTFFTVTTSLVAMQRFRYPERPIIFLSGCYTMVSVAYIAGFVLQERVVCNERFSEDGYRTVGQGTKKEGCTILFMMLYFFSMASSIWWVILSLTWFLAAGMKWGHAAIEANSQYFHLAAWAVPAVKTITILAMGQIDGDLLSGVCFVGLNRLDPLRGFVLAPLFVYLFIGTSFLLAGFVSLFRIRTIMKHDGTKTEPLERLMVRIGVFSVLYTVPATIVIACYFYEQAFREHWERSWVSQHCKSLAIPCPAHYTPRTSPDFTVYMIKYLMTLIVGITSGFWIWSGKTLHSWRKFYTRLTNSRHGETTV
In assay [6] the target is Frizzled-1 (Rattus norvegicus) (UniProt Q08463). Briefly: Antagonist activity at Wnt3a-stimulated rat frizzled-1 expressed in African green monkey COS7 cells up to 10 uM incubated for 24 hrs by luciferase reporter gene assay. The class given is cell-based. Particulars: dose microM <=10, time 24.0 hrs.
Sequence of Frizzled-1 (Rattus norvegicus) (Q08463 whole entry): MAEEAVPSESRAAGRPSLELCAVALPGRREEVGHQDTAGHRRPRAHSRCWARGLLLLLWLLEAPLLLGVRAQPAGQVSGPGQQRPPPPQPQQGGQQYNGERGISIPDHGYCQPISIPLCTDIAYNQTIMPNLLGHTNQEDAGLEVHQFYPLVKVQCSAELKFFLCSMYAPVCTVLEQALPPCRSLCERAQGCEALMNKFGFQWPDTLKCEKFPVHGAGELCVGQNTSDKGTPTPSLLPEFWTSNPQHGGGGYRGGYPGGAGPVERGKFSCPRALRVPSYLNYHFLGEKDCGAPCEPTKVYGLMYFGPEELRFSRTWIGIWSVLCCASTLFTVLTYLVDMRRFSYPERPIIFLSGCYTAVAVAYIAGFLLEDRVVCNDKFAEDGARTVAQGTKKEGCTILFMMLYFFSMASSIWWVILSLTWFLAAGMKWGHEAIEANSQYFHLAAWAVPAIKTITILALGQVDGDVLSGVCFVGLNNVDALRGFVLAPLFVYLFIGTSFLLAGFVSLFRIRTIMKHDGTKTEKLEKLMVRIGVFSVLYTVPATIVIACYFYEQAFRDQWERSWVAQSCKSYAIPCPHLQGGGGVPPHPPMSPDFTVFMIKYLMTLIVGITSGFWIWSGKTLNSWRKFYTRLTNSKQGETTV
Assay [7] concerns the target T1, Frizzled-2. Briefly: Antagonist activity at Wnt3a-stimulated frizzled-2 (unknown origin) expressed in human HEK293superTOP flash cells at 10 nM incubated for 24 hrs by luciferase reporter gene assay. The class given is functional, cell-based. As to conditions: HEK293.
Target sequence in this assay (Q14332 24-565 limits assumed): as the sequence (Q14332 24-565 limits assumed) above
Assay [8] has as its target Frizzled-1 (Homo sapiens) (UniProt Q9UP38). Briefly: Antagonist activity at Wnt3a-stimulated frizzled-1 (unknown origin) expressed in human HEK293superTOP flash cells at 10 nM incubated for 24 hrs by luciferase reporter gene assay. The class given is functional, cell-based. Particulars: HEK293.
Assay [9] concerns the target Frizzled-1 (Rattus norvegicus) (UniProt Q08463). Briefly: Antagonist activity at Wnt3a-stimulated rat frizzled-1 expressed in CHO cells up to 10 uM incubated for 24 hrs by luciferase reporter gene assay. The class given is cell-based. Particulars: dose microM <=10, time 24.0 hrs.
The target of assay [10] is Frizzled-2 (Rattus norvegicus) (UniProt Q08464). Kind of assay: Antagonist activity at Wnt3a-stimulated rat frizzled-2 expressed in CHO cells up to 10 uM incubated for 24 hrs by luciferase reporter gene assay. Particulars: dose microM <=10, time 24.0 hrs. The class given is cell-based.

The results in this text go back to ChEMBL document CHEMBL4806959, “Antagonistic peptides for frizzled-1 and frizzled-2” (2015).

The source made the active and inactive calls. The calls are words filed in the database; no cut-off is given here. Residues, ends and D or L forms follow the SMILES beside them.

With `CC(=O)N[C@@H](CC(=O)O)C(=O)N[C@@H](CC(C)C)C(=O)N[C@H](C(=O)N[C@@H](Cc1ccc(O)cc1)C(=O)N[C@@H](Cc1ccccc1)C(=O)N[C@@H](CCC(=O)O)C(=O)N[C@@H](CC(C)C)C(=O)N[C@@H](CO)C(=O)N1CCC[C@H]1C(=O)N[C@@H](CC(=O)O)C(=O)N[C@@H](Cc1ccccc1)C(=O)N[C@@H](CS)C(=O)N[C@@H](C)C(N)=O)C(C)C` (Ac-DLVYFELSPDFCA-NH2), the EC50 result on Frizzled-2 [1] was “Not Active”. Also, in [2], the result was inactive. The inhibition result (in assay [3]; on Frizzled-2 [4]) was “inactive” throughout.
For the compound `CC(=O)NCC(=O)N[C@@H](CO)C(=O)N[C@@H](CCCCN)C(=O)NCC(=O)N[C@H](C(=O)N[C@@H](CCC(N)=O)C(=O)NCC(=O)N[C@@H](CCCNC(=N)N)C(=O)N[C@@H](C)C(=O)N[C@@H](CS)C(=O)N[C@@H](CC(N)=O)C(N)=O)[C@@H](C)O` (Ac-GSKGTQGRACN-NH2), the EC50 result on Frizzled-2 [1] is “Not Active”. The outcome in assay [2] was inactive. For the same compound, the inhibition entry (in assay [3]; on Frizzled-2 [4]) was “inactive” in each case.
In the case of `CC[C@H](C)[C@H](NC(C)=O)C(=O)N[C@@H](CCC(=O)O)C(=O)N[C@@H](CCC(=O)O)C(=O)N[C@@H](CS)C(=O)N[C@@H](CCC(N)=O)C(=O)N[C@@H](Cc1cnc[nH]1)C(=O)N[C@@H](CCC(N)=O)C(=O)N[C@@H](Cc1ccccc1)C(=O)N[C@@H](CCCNC(=N)N)C(=O)N[C@@H](CC(=O)O)C(=O)N[C@@H](CCCNC(=N)N)C(=O)N[C@@H](CCCNC(=N)N)C(=O)N[C@@H](Cc1c[nH]c2ccccc12)C(=O)N[C@@H](CC(N)=O)C(=O)N[C@@H](CS)C(N)=O` (Ac-IEECQHQFRDRRWNC-NH2), at Frizzled-2 [1], the EC50 entry was “Not Active”. Moreover, the outcome in assay [2] was inactive. Moreover, the inhibition result (in [3]; on Frizzled-2 [4]) was “inactive” in each case.
`CC[C@H](C)[C@H](NC(=O)[C@H](CC(N)=O)NC(=O)[C@H](CC(=O)O)NC(=O)[C@H](CO)NC(=O)[C@H](CS)NC(=O)[C@H](CCC(=O)O)NC(=O)CNC(=O)[C@H](Cc1c[nH]c2ccccc12)NC(=O)[C@H](CCC(=O)O)NC(=O)[C@H](Cc1c[nH]c2ccccc12)NC(=O)[C@H](CC(=O)O)NC(=O)CNC(C)=O)C(N)=O` (Ac-GDWEWGECSDNI-NH2): the EC50 entry at Frizzled-2 [1] is listed as “Not Active”. Also, the result in [2] was inactive. In addition, the inhibition entry (in assay [3]; at Frizzled-2 [4]) was “inactive” each time.
Take `CSCC[C@H](NC(=O)CNC(=O)[C@H](CCC(=O)O)NC(=O)[C@H](CO)NC(=O)[C@@H](NC(=O)[C@H](CCCCN)NC(=O)[C@H](CC(N)=O)NC(=O)[C@H](CS)NC(C)=O)[C@@H](C)O)C(=O)N[C@@H](CC(=O)O)C(=O)NCC(=O)N[C@@H](CS)C(=O)N[C@@H](CCC(=O)O)C(=O)N[C@@H](C)C(N)=O` (Ac-CNKTSEGMDGCEA-NH2): the inhibition entry (in assay [5]; in assay [6]; on Frizzled-2 [7]; in assay [8]; in assay [9]; in assay [10]) was “inactive” each time.
Take `CSCC[C@H](NC(=O)CNC(=O)[C@H](CCC(=O)O)NC(=O)[C@H](CO)NC(=O)[C@@H](NC(=O)[C@H](CCCCN)NC(=O)[C@H](CC(N)=O)NC(=O)[C@H](CS)NC(C)=O)[C@@H](C)O)C(=O)N[C@@H](CC(=O)O)C(=O)NCC(=O)N[C@@H](C)C(=O)N[C@@H](CCC(=O)O)C(=O)N[C@@H](CC(C)C)C(N)=O` (Ac-CNKTSEGMDGAEL-NH2): the inhibition entry (in assay [5]; in assay [6]; at Frizzled-2 [7]; in [8]; in assay [9]; in assay [10]) was “inactive” throughout.
`CSCC[C@H](NC(=O)CNC(=O)[C@H](CCC(=O)O)NC(=O)[C@H](CO)NC(=O)[C@@H](NC(=O)[C@H](CCCCN)NC(=O)[C@H](CC(N)=O)NC(=O)[C@H](CS)NC(C)=O)[C@@H](C)O)C(=O)N[C@@H](CC(=O)O)C(=O)N[C@@H](C)C(=O)N[C@@H](CS)C(=O)N[C@@H](CCC(=O)O)C(=O)N[C@@H](CC(C)C)C(N)=O` (Ac-CNKTSEGMDACEL-NH2): the inhibition entry (in assay [5]; in assay [6]; on Frizzled-2 [7]; in assay [8]; in [9]; in [10]) was “inactive” throughout.
`CSCC[C@H](NC(=O)CNC(=O)[C@H](CCC(=O)O)NC(=O)[C@H](CO)NC(=O)[C@H](C)NC(=O)[C@H](CCCCN)NC(=O)[C@H](CC(N)=O)NC(=O)[C@H](CS)NC(C)=O)C(=O)N[C@@H](CC(=O)O)C(=O)NCC(=O)N[C@@H](CS)C(=O)N[C@@H](CCC(=O)O)C(=O)N[C@@H](CC(C)C)C(N)=O` (Ac-CNKASEGMDGCEL-NH2): the inhibition result (in assay [5]; in assay [6]; on Frizzled-2 [7]; in assay [8]; in assay [9]; in [10]) was “inactive” each time.
For `CC(=O)N[C@@H](CS)C(=O)N[C@@H](CC(N)=O)C(=O)N[C@@H](CCCCN)C(=O)N[C@H](C(=O)N[C@@H](CO)C(=O)N[C@@H](CCC(=O)O)C(=O)NCC(=O)N[C@@H](C)C(=O)N[C@@H](CC(=O)O)C(=O)NCC(=O)N[C@@H](CS)C(=O)N[C@@H](CCC(=O)O)C(=O)N[C@@H](CC(C)C)C(N)=O)[C@@H](C)O` (Ac-CNKTSEGADGCEL-NH2), the inhibition entry (in [5]; in assay [6]; on Frizzled-2 [7]; in assay [8]; in assay [9]; in assay [10]) was “inactive” in each case.
With `CSCC[C@H](NC(=O)CNC(=O)[C@H](CCC(=O)O)NC(=O)[C@H](CO)NC(=O)[C@@H](NC(=O)[C@H](CCCCN)NC(=O)[C@H](CC(N)=O)NC(=O)[C@H](C)NC(C)=O)[C@@H](C)O)C(=O)N[C@@H](CC(=O)O)C(=O)NCC(=O)N[C@@H](CS)C(=O)N[C@@H](CCC(=O)O)C(=O)N[C@@H](CC(C)C)C(N)=O` (Ac-ANKTSEGMDGCEL-NH2), the inhibition entry (in assay [5]; in [6]; on Frizzled-2 [7]; in assay [8]; in [9]; in [10]) was “inactive” in each case.
As to `CSCC[C@H](NC(=O)CNC(=O)[C@H](CCC(=O)O)NC(=O)[C@H](CO)NC(=O)[C@@H](NC(=O)[C@H](CCCCN)NC(=O)[C@H](C)NC(=O)[C@H](CS)NC(C)=O)[C@@H](C)O)C(=O)N[C@@H](CC(=O)O)C(=O)NCC(=O)N[C@@H](CS)C(=O)N[C@@H](CCC(=O)O)C(=O)N[C@@H](CC(C)C)C(N)=O` (Ac-CAKTSEGMDGCEL-NH2), the inhibition result (in assay [5]; in assay [6]; at Frizzled-2 [7]; in [8]; in [9]; in [10]) was “inactive” throughout.
Regarding `CSCC[C@H](NC(=O)CNC(=O)[C@H](CCC(=O)O)NC(=O)[C@H](CO)NC(=O)[C@@H](NC(=O)[C@H](CCCCN)NC(=O)[C@H](CC(N)=O)NC(=O)[C@H](CS)NC(C)=O)[C@@H](C)O)C(=O)N[C@@H](C)C(=O)NCC(=O)N[C@@H](CS)C(=O)N[C@@H](CCC(=O)O)C(=O)N[C@@H](CC(C)C)C(N)=O` (Ac-CNKTSEGMAGCEL-NH2), the inhibition result (in [5]; in assay [6]; on Frizzled-2 [7]; in assay [8]; in assay [9]; in assay [10]) was “inactive” throughout.
Regarding `CSCC[C@H](NC(=O)CNC(=O)[C@H](CCC(=O)O)NC(=O)[C@H](C)NC(=O)[C@@H](NC(=O)[C@H](CCCCN)NC(=O)[C@H](CC(N)=O)NC(=O)[C@H](CS)NC(C)=O)[C@@H](C)O)C(=O)N[C@@H](CC(=O)O)C(=O)NCC(=O)N[C@@H](CS)C(=O)N[C@@H](CCC(=O)O)C(=O)N[C@@H](CC(C)C)C(N)=O` (Ac-CNKTAEGMDGCEL-NH2), the inhibition result (in assay [5]; in assay [6]; at Frizzled-2 [7]; in [8]; in assay [9]; in assay [10]) was “inactive” in each case.
`CSCC[C@H](NC(=O)CNC(=O)[C@H](CCC(=O)O)NC(=O)[C@H](CO)NC(=O)[C@@H](NC(=O)[C@H](CCCCN)NC(=O)[C@H](CC(N)=O)NC(=O)[C@H](CS)NC(C)=O)[C@@H](C)O)C(=O)N[C@@H](CC(=O)O)C(=O)NCC(=O)N[C@@H](CS)C(=O)N[C@@H](C)C(=O)N[C@@H](CC(C)C)C(N)=O` (Ac-CNKTSEGMDGCAL-NH2): the inhibition entry (in [5]; in assay [6]; on Frizzled-2 [7]; in assay [8]; in [9]; in assay [10]) was “inactive” each time.
